From patent US20240148709A1, “METHODS OF TREATING EYE PAIN AND EYE DISORDERS” (Aisa Pharma, Inc., priority 2022, published 2024)

Tested on: participants with SSc-RP
Test: Scleroderma Health Assessment Questionnaire (SHAQ), Phase 2a study Part A
Type: in vivo, human
Description: Part A—double-blind, placebo-controlled, parallel-group, dose selection, will assess the safety and efficacy of two doses of cilnidipine (10 mg and 20 mg), alone and in combination with tadalafil. A total of 36 participants will be randomized to one of six prespecified treatment arms. Refer to FIG. 1 for treatment arms in Part A of the study. Dosing last for 12 (±2) days in which participants will self-administer daily doses of assigned treatment in the morning. Each participant will take one capsule and one tablet to blind the active therapy being received.
The standard, validated, patient reported outcome measures tool for SSc patients, the SHAQ, will be collected at the time points specified in the study schedules (FIG. 2 and FIGS. 3A and 3B) to assess the participant's quality of life. The SHAQ includes a Raynaud's VAS that will also be reported separately.
Results: Patients in the study were administered the Scleroderma Health Assessment Questionnaire (SHAQ) at the time of study entry and during clinic visits following the treatment period. The study is a two-part, parallel arm design, prospective, double-blind, randomized study conducted in Australia (Flinders Medical Center). 27 patients were randomized into the first phase of the study, following which a DSMB meeting was held, which reviewed data on the primary study endpoint and key Raynaud's secondary endpoints. Data on the SHAQ was not available for the DSMB to review. The mITT population, in which any data was available post treatment was 24 patients was the analysis population for this first part of the study. The second part (i.e., part B) of the study will randomize 36 patients in a double blind, randomized, prospective, placebo controlled, crossover study. In the first part (i.e., Part A) of the study for which data is presented, patients were randomized into 6 groups, cilnidipine at two doses (10 and 20 mg) alone and in combination with tadalafil 5 mg, tadalafil 5 mg alone, and placebo. […] The DSMB recommended that the study proceed into its double blind prospective cross overpowered second phase and compare cilnidipine 20 mg alone to placebo.

[1] = cilnidipine 10 mg and/or tadalafil 5 mg arms
[2] = cilnidipine 20 mg arms (alone or + tadalafil 5 mg)

COCCOC(=O)C1=C(C)NC(C)=C(C(=O)OC/C=C/c2ccccc2)C1c1cccc([N+](=O)[O-])c1 (stereo not shown) [Cilnidipine, cilnidipine]
SHAQ Visual Analog Scale-Raynaud's, In Clinic Visit (Day 12), Mean (SD) [1]: 1.925 (1.9207)
SHAQ Visual Analog Scale-Raynaud's, In Clinic Visit (Day 12), Median [1]: 1.700
SHAQ Visual Analog Scale-Raynaud's, In Clinic Visit (Day 12), Min [1]: 0.00
SHAQ Visual Analog Scale-Raynaud's, In Clinic Visit (Day 12), Q1 [1]: 0.400
SHAQ Visual Analog Scale-Raynaud's, In Clinic Visit (Day 12), Q3 [1]: 3.450
SHAQ Visual Analog Scale-Raynaud's, Percent Change from Baseline, Max [1]: 136.4%
SHAQ Visual Analog Scale-Raynaud's, Percent Change from Baseline, Mean (SD) [1]: 11.36 (118.770) %
SHAQ Visual Analog Scale-Raynaud's, Percent Change from Baseline, Median [1]: −2.27%
SHAQ Visual Analog Scale-Raynaud's, Percent Change from Baseline, Min [1]: −100.0%
SHAQ Visual Analog Scale-Raynaud's, Percent Change from Baseline, Q1 [1]: −100.00%
SHAQ alternative disability index, Change from Baseline, Max [1]: 0.38
SHAQ alternative disability index, Change from Baseline, Mean (SD) [1]: 0.063 (0.2165)
SHAQ alternative disability index, Change from Baseline, Median [1]: 0.000
SHAQ alternative disability index, Change from Baseline, Min [1]: −0.13
SHAQ alternative disability index, Change from Baseline, Q1 [1]: −0.063
SHAQ alternative disability index, Change from Baseline, Q3 [1]: 0.188
SHAQ alternative disability index, In Clinic Visit (Day 12), Max [1]: 1.25
SHAQ alternative disability index, In Clinic Visit (Day 12), Mean (SD) [1]: 0.563 (0.6575)
SHAQ alternative disability index, In Clinic Visit (Day 12), Median [1]: 0.500
SHAQ alternative disability index, In Clinic Visit (Day 12), Min [1]: 0.00
SHAQ alternative disability index, In Clinic Visit (Day 12), Q1 [1]: 0.000
SHAQ alternative disability index, In Clinic Visit (Day 12), Q3 [1]: 1.125
SHAQ alternative disability index, Percent Change from Baseline, Max [1]: 42.9%
SHAQ alternative disability index, Percent Change from Baseline, Mean (SD) [1]: 15.87 (38.161) %
SHAQ alternative disability index, Percent Change from Baseline, Median [1]: 15.87%
SHAQ alternative disability index, Percent Change from Baseline, Min [1]: −11.1%
SHAQ alternative disability index, Percent Change from Baseline, Q1 [1]: −11.11%
SHAQ alternative disability index, Percent Change from Baseline, Q3 [1]: 42.86%
SHAQ Finger Ulcers, Change from Baseline, Max [2]: 0.40
SHAQ Finger Ulcers, Change from Baseline, Mean (SD) [2]: −0.933 (1.9732)
SHAQ Finger Ulcers, Change from Baseline, Median [2]: 0.000
SHAQ Finger Ulcers, Change from Baseline, Min [2]: −3.20
SHAQ Finger Ulcers, Change from Baseline, Q1 [2]: −3.200
SHAQ Finger Ulcers, Change from Baseline, Q3 [2]: 0.400
SHAQ Finger Ulcers, In Clinic Visit (Day 12), Max [2]: 1.90
SHAQ Finger Ulcers, In Clinic Visit (Day 12), Mean (SD) [2]: 0.867 (0.9609)
SHAQ Finger Ulcers, In Clinic Visit (Day 12), Median [2]: 0.700
SHAQ Finger Ulcers, In Clinic Visit (Day 12), Min [2]: 0.00
SHAQ Finger Ulcers, In Clinic Visit (Day 12), Q1 [2]: 0.000
SHAQ Finger Ulcers, In Clinic Visit (Day 12), Q3 [2]: 1.900
SHAQ Finger Ulcers, Percent Change from Baseline, Max [2]: 133.3%
SHAQ Finger Ulcers, Percent Change from Baseline, Mean (SD) [2]: 35.29 (138.648) %
SHAQ Finger Ulcers, Percent Change from Baseline, Median [2]: 35.29%
SHAQ Finger Ulcers, Percent Change from Baseline, Min [2]: −62.7%
SHAQ Finger Ulcers, Percent Change from Baseline, Q1 [2]: −62.75%
SHAQ Finger Ulcers, Percent Change from Baseline, Q3 [2]: 133.33%
SHAQ Overall Change in Severity, Change from Baseline, Max [2]: −1.50
SHAQ Overall Change in Severity, Change from Baseline, Median [2]: −1.600
SHAQ Overall Change in Severity, Change from Baseline, Min [2]: −1.80
SHAQ Overall Change in Severity, Change from Baseline, Q1 [2]: −1.800
SHAQ Overall Change in Severity, Change from Baseline, Q3 [2]: −1.500
SHAQ Overall Change in Severity, In Clinic Visit (Day 12), Max [2]: 1.40
SHAQ Overall Change in Severity, In Clinic Visit (Day 12), Mean (SD) [2]: 1.033 (0.4726)
SHAQ Overall Change in Severity, In Clinic Visit (Day 12), Median [2]: 1.200
SHAQ Overall Change in Severity, In Clinic Visit (Day 12), Min [2]: 0.50
SHAQ Overall Change in Severity, In Clinic Visit (Day 12), Q1 [2]: 0.500
SHAQ Overall Change in Severity, In Clinic Visit (Day 12), Q3 [2]: 1.400
SHAQ Overall Change in Severity, Percent Change from Baseline, Max [2]: −51.7%
SHAQ Overall Change in Severity, Percent Change from Baseline, Mean (SD) [2]: −62.64 (12.445) %
SHAQ Overall Change in Severity, Percent Change from Baseline, Median [2]: −60.00%
SHAQ Overall Change in Severity, Percent Change from Baseline, Min [2]: −76.2%
SHAQ Overall Change in Severity, Percent Change from Baseline, Q1 [2]: −76.19%
SHAQ Overall Change in Severity, Percent Change from Baseline, Q3 [2]: −51.72%
SHAQ Standard disability index, Change from Baseline, Max [2]: 0.00
SHAQ Standard disability index, Change from Baseline, Mean (SD) [2]: −0.125 (0.1250)
SHAQ Standard disability index, Change from Baseline, Median [2]: −0.125
SHAQ Standard disability index, Change from Baseline, Min [2]: −0.25
SHAQ Standard disability index, Change from Baseline, Q1 [2]: −0.250
SHAQ Standard disability index, Change from Baseline, Q3 [2]: 0.000
SHAQ Standard disability index, In Clinic Visit (Day 12), Max [2]: 0.25
SHAQ Standard disability index, In Clinic Visit (Day 12), Mean (SD) [2]: 0.125 (0.1250)
SHAQ Standard disability index, In Clinic Visit (Day 12), Median [2]: 0.125
SHAQ Standard disability index, In Clinic Visit (Day 12), Min [2]: 0.00
SHAQ Standard disability index, In Clinic Visit (Day 12), Q1 [2]: 0.000
SHAQ Standard disability index, In Clinic Visit (Day 12), Q3 [2]: 0.250
SHAQ Standard disability index, Percent Change from Baseline, Max [2]: −33.3%
SHAQ Standard disability index, Percent Change from Baseline, Mean (SD) [2]: −50.00 (23.570) %
SHAQ Standard disability index, Percent Change from Baseline, Median [2]: −50.00%
SHAQ Standard disability index, Percent Change from Baseline, Min [2]: −66.7%
SHAQ Standard disability index, Percent Change from Baseline, Q1 [2]: −66.67%
SHAQ Standard disability index, Percent Change from Baseline, Q3 [2]: −33.33%
SHAQ Visual Analog Scale-Breathing Problems, Change from Baseline, Max [2]: 0.30
SHAQ Visual Analog Scale-Breathing Problems, Change from Baseline, Median [2]: −0.800
SHAQ Visual Analog Scale-Breathing Problems, Change from Baseline, Min [2]: −2.00
SHAQ Visual Analog Scale-Breathing Problems, Change from Baseline, Q1 [2]: −2.000
